Source: ChEMBL document CHEMBL3351417, “Thiophene-3-carboxamide analogue of annonaceous acetogenins as antitumor drug lead” (Eur J Med Chem, 2014)

What was measured:
Type in all cases: functional
[1] = Growth inhibition of human BSY1 cells after 48 hrs by sulforhodamine B colorimetric assay; settings: BSY-1, 48 h
[2] = Growth inhibition of human HBC5 cells after 48 hrs by sulforhodamine B colorimetric assay; settings: HBC5, 48 h
[3] = Growth inhibition of human LOXIMVI cells after 48 hrs by sulforhodamine B colorimetric assay; settings: LOX IMVI
[4] = Growth inhibition of human HCT15 cells after 48 hrs by sulforhodamine B colorimetric assay; settings: HCT-15, 48 h
DU-145 = experiment: Growth inhibition of human DU145 cells after 48 hrs by sulforhodamine B colorimetric assay; settings: DU-145, 48 h
[5] = Growth inhibition of human OVCAR4 cells after 48 hrs by sulforhodamine B colorimetric assay; settings: OVCAR-4, 48 h
NCI-H23 = experiment: Growth inhibition of human NCI-H23 cells after 48 hrs by sulforhodamine B colorimetric assay; settings: NCI-H23, 48 h
[6] = Growth inhibition of human HBC4 cells after 48 hrs by sulforhodamine B colorimetric assay; settings: HBC4, 48 h
[7] = Growth inhibition of human HCT116 cells after 48 hrs by sulforhodamine B colorimetric assay; settings: HCT-116, 48 h
[8] = Growth inhibition of human MKN45 cells after 48 hrs by sulforhodamine B colorimetric assay; settings: MKN-45, 48 h
[9] = Growth inhibition of human MKN1 cells after 48 hrs by sulforhodamine B colorimetric assay; settings: MKN-1, 48 h
MDA-MB-231 = experiment: Growth inhibition of human MDA-MB-231 cells after 48 hrs by sulforhodamine B colorimetric assay; settings: MDA-MB-231, 48 h
NCI-H522 = experiment: Growth inhibition of human NCI-H522 cells after 48 hrs by sulforhodamine B colorimetric assay; settings: NCI-H522, 48 h
[10] = Growth inhibition of human HCC2998 cells after 48 hrs by sulforhodamine B colorimetric assay; settings: HCC 2998, 48 h
MCF7 = experiment: Growth inhibition of human MCF7 cells after 48 hrs by sulforhodamine B colorimetric assay; settings: MCF7, 48 h
St-4 = experiment: Growth inhibition of human St-4 cells after 48 hrs by sulforhodamine B colorimetric assay; settings: St-4, 48 h
[11] = Growth inhibition of human DMS273 cells after 48 hrs by sulforhodamine B colorimetric assay; settings: DMS-273, 48 h
[12] = Growth inhibition of human MKN74 cells after 48 hrs by sulforhodamine B colorimetric assay; settings: MKN-74, 48 h
HT-29 = experiment: Growth inhibition of human HT-29 cells after 48 hrs by sulforhodamine B colorimetric assay; settings: HT-29, 48 h
SF-268 = experiment: Growth inhibition of human SF268 cells after 48 hrs by sulforhodamine B colorimetric assay; settings: SF-268, 48 h
[13] = Growth inhibition of human SF539 cells after 48 hrs by sulforhodamine B colorimetric assay; settings: SF-539, 48 h
[14] = Growth inhibition of human RXF631L cells after 48 hrs by sulforhodamine B colorimetric assay; settings: RXF 631, 48 h
SNB-75 = experiment: Growth inhibition of human SNB75 cells after 48 hrs by sulforhodamine B colorimetric assay; settings: SNB-75, 48 h
ACHN = experiment: Growth inhibition of human ACHN cells after 48 hrs by sulforhodamine B colorimetric assay
NCI-H460 = experiment: Growth inhibition of human NCI-H460 cells after 48 hrs by sulforhodamine B colorimetric assay; settings: NCI-H460, 48 h
[15] = Growth inhibition of human SNB78 cells after 48 hrs by sulforhodamine B colorimetric assay; settings: SNB-78, 48 h
[16] = Growth inhibition of human PC3 cells after 48 hrs by sulforhodamine B colorimetric assay; settings: PC-3, 48 h
KM12 = experiment: Growth inhibition of human KM12 cells after 48 hrs by sulforhodamine B colorimetric assay; settings: KM12, 48 h
SK-OV-3 = experiment: Growth inhibition of human SKOV3 cells after 48 hrs by sulforhodamine B colorimetric assay; settings: SK-OV-3, 48 h
[17] = Growth inhibition of human SF295 cells after 48 hrs by sulforhodamine B colorimetric assay; settings: SF-295, 48 h
[18] = Growth inhibition of human DMS114 cells after 48 hrs by sulforhodamine B colorimetric assay; settings: DMS-114, 48 h
U-251 = experiment: Growth inhibition of human U251 cells after 48 hrs by sulforhodamine B colorimetric assay; settings: U-251, 48 h
[19] = Growth inhibition of human OVCAR5 cells after 48 hrs by sulforhodamine B colorimetric assay; settings: OVCAR-5, 48 h
[20] = Growth inhibition of human MKN7 cells after 48 hrs by sulforhodamine B colorimetric assay; settings: MKN-7, 48 h
[21] = Growth inhibition of human OVCAR8 cells after 48 hrs by sulforhodamine B colorimetric assay; settings: OVCAR-8, 48 h
NCI-H226 = experiment: Growth inhibition of human NCI-H226 cells after 48 hrs by sulforhodamine B colorimetric assay; settings: NCI-H226, 48 h
[22] = Growth inhibition of human MKN28 cells after 48 hrs by sulforhodamine B colorimetric assay; settings: MKN-28, 48 h
A549 = experiment: Growth inhibition of human A549 cells after 48 hrs by sulforhodamine B colorimetric assay; settings: A549, 48 h
[23] = Growth inhibition of human OVCAR3 cells after 48 hrs by sulforhodamine B colorimetric assay; settings: OVCAR-3, 48 h

CCCCCCCCCCCC[C@@H](O)[C@H]1CC[C@H]([C@H](O)CCCCCCCCCCNC(=O)c2cncs2)O1
GI50 [1]: 3.98 µM
GI50 [2]: > 100 µM
GI50 [3]: > 100 µM
GI50 [4]: > 100 µM
GI50 (DU-145): > 100 µM
GI50 [5]: > 100 µM
GI50 (NCI-H23): 4.79 µM
GI50 [6]: > 100 µM
GI50 [7]: 12.9 µM
GI50 [8]: > 100 µM
GI50 [9]: > 100 µM
GI50 (MDA-MB-231): > 100 µM
GI50 (NCI-H522): 19.1 µM
GI50 [10]: > 100 µM
GI50 (MCF7): > 100 µM
GI50 (St-4): > 100 µM
GI50 [11]: 19.1 µM
GI50 [12]: 61700 nM
GI50 (HT-29): > 100 µM
GI50 (SF-268): > 100 µM
GI50 [13]: 50.1 µM
GI50 [14]: > 100 µM
GI50 (SNB-75): > 100 µM
GI50 (ACHN): > 100 µM
GI50 (NCI-H460): 34.7 µM
GI50 [15]: > 100 µM
GI50 [16]: > 100 µM
GI50 (KM12): > 100 µM
GI50 (SK-OV-3): > 100 µM
GI50 [17]: 43.7 µM
GI50 [18]: 219 nM
GI50 (U-251): > 100 µM
GI50 [19]: > 100 µM
GI50 [20]: 617 nM
GI50 [21]: > 100 µM
GI50 (NCI-H226): > 100 µM
GI50 [22]: 832 nM
GI50 (A549): 34.7 µM
GI50 [23]: > 100 µM

CCCCCCCCCCCC[C@@H](O)[C@H]1CC[C@H]([C@H](O)CCCCCCCCCCCCC2=C[C@H](C)OC2=O)O1 [REL-SOLAMIN]
GI50 [1]: > 100 µM
GI50 [2]: > 100 µM
GI50 [4]: > 100 µM
GI50 (DU-145): > 100 µM
GI50 [5]: > 100 µM
GI50 [6]: > 100 µM
GI50 [7]: > 100 µM
GI50 [8]: > 100 µM
GI50 [9]: > 100 µM
GI50 (MDA-MB-231): > 100 µM
GI50 [10]: > 100 µM
GI50 (St-4): > 100 µM
GI50 [11]: > 100 µM
GI50 [12]: > 100000 nM
GI50 (HT-29): > 100 µM
GI50 (SF-268): > 100 µM
GI50 [13]: > 100 µM
GI50 [14]: > 100 µM
GI50 (SNB-75): > 100 µM
GI50 (ACHN): > 100 µM
GI50 (NCI-H460): > 100 µM
GI50 [15]: > 100 µM
GI50 [16]: > 100 µM
GI50 (KM12): > 100 µM
GI50 (SK-OV-3): > 100 µM
GI50 [17]: 39.8 µM
GI50 (U-251): > 100 µM
GI50 [19]: > 100 µM
GI50 [21]: > 100 µM
GI50 (NCI-H226): > 100 µM
GI50 (A549): > 100 µM
GI50 [23]: > 100 µM

CCCCCCCCCCCC[C@@H](O)[C@H]1CC[C@H]([C@H](O)CCCCCCCCCCNC(=O)c2ccco2)O1
GI50 [1]: 0.49 µM
GI50 [2]: > 100 µM
GI50 [3]: 17 µM
GI50 [4]: > 100 µM
GI50 (DU-145): > 100 µM
GI50 [5]: 15.8 µM
GI50 (NCI-H23): 12.9 µM
GI50 [6]: > 100 µM
GI50 [7]: 7.76 µM
GI50 [8]: > 100 µM
GI50 [9]: > 100 µM
GI50 (MDA-MB-231): > 100 µM
GI50 (NCI-H522): 18.2 µM
GI50 [10]: > 100 µM
GI50 (MCF7): > 100 µM
GI50 (St-4): > 100 µM
GI50 [11]: 39.8 µM
GI50 [12]: 1700 nM
GI50 (HT-29): > 100 µM
GI50 (SF-268): > 100 µM
GI50 [13]: 81.3 µM
GI50 [14]: > 100 µM
GI50 (SNB-75): > 100 µM
GI50 (ACHN): > 100 µM
GI50 (NCI-H460): 18.2 µM
GI50 [15]: > 100 µM
GI50 [16]: > 100 µM
GI50 (KM12): > 100 µM
GI50 (SK-OV-3): > 100 µM
GI50 [17]: 33.9 µM
GI50 [18]: 282 nM
GI50 (U-251): > 100 µM
GI50 [19]: > 100 µM
GI50 [20]: 832 nM
GI50 [21]: > 100 µM
GI50 (NCI-H226): 97.7 µM
GI50 [22]: 617 nM
GI50 (A549): > 100 µM
GI50 [23]: > 100 µM

CCCCCCCCCCCC[C@@H](O)[C@H]1CC[C@H]([C@H](O)CCCCCCCCCCNC(=O)c2cccs2)O1
GI50 [1]: 18.2 µM
GI50 [2]: 3.24 µM
GI50 [3]: 1.29 µM
GI50 [4]: 5.75 µM
GI50 (DU-145): 2.69 µM
GI50 [5]: 1.82 µM
GI50 (NCI-H23): 0.676 µM
GI50 [6]: 3.39 µM
GI50 [7]: 1.29 µM
GI50 [8]: 3.31 µM
GI50 [9]: 1.82 µM
GI50 (MDA-MB-231): 2.57 µM
GI50 (NCI-H522): 1.1 µM
GI50 [10]: 2 µM
GI50 (MCF7): 2.19 µM
GI50 (St-4): 1.82 µM
GI50 [11]: 1.82 µM
GI50 [12]: 1510 nM
GI50 (HT-29): 2.19 µM
GI50 (SF-268): 3.98 µM
GI50 [13]: 17 µM
GI50 [14]: 3.24 µM
GI50 (SNB-75): 3.39 µM
GI50 (ACHN): 2.57 µM
GI50 (NCI-H460): 2.29 µM
GI50 [15]: 2.29 µM
GI50 [16]: 2.29 µM
GI50 (KM12): 3.09 µM
GI50 (SK-OV-3): 28.8 µM
GI50 [17]: 1.41 µM
GI50 [18]: 282 nM
GI50 (U-251): 2 µM
GI50 [19]: 2.51 µM
GI50 [20]: 269 nM
GI50 [21]: 3.02 µM
GI50 (NCI-H226): 2.09 µM
GI50 [22]: 363 nM
GI50 (A549): 3.72 µM
GI50 [23]: 0.0427 µM
